Several values for one entry are separate records, joined by “and”; a condition that tells them apart may be missing. Equal entries are not always repeated.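 Dose response: 5 concentrations. Exposure: 48 h. Format: 96-well plates. Endpoint: linear interpolation; highest concentration if not reached. GI50 marks 50% less growth. TGI denotes the concentration required for complete inhibition of growth.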
Assays:
Test in all cases: NCI anticancer screen, dose series, 48 h
[1] = tested on: ACHN renal
[2] = tested on: T-47D breast
[3] = tested on: UACC-62 melanoma
[4] = tested on: HOP-92 NSCLC
[5] = tested on: SF-268 CNS
[6] = tested on: SW-620 colon
[7] = tested on: EKVX NSCLC
[8] = tested on: SNB-19 CNS
[9] = tested on: SK-MEL-2 melanoma
[10] = tested on: A549 NSCLC

Structure (SMILES)	TGI [1]	TGI [2]	TGI [3]	TGI [4]	TGI [5]	TGI [6]	TGI [7]	TGI [8]	TGI [9]	TGI [10]	GI50 [4]	GI50 [5]	GI50 [8]	GI50 [3]	GI50 [7]	GI50 [10]
CC(=O)OCCCCn1cc(Cn2ccc(=O)n(Cc3cn(CCCCOC(C)=O)nn3)c2=O)nn1	> 100 µM	> 100 µM	> 100 µM	> 100 µM	> 100 µM	> 100 µM	> 100 µM	> 100 µM	> 100 µM	> 100 µM						
CCOC(=O)C(=CN1CCNC1=S)C(=O)OCC	> 100 µM	> 100 µM	> 100 µM	> 100 µM	> 100 µM	> 100 µM	> 100 µM	> 100 µM	> 100 µM	> 100 µM	> 100 µM	> 100 µM	> 100 µM			
O=[N+]([O-])c1cccc(Cl)c1Oc1ccc(S(=O)(=O)/N=C(\NO)Nc2ccc(Cl)cc2)cc1	27.5 µM	29.3 µM	25.5 µM	17.1 µM	28 µM	30.3 µM	26.2 µM	30.7 µM	29.6 µM	28.7 µM						
CC(=O)NC1(C(=O)N[C@@H](Cc2ccccc2)C(=O)NC2CCCCC2)Cc2ccc3ccccc3c2-c2c(ccc3ccccc23)C1	> 100 µM	> 100 µM	> 100 µM	> 100 µM	> 100 µM	> 100 µM	> 100 µM	> 100 µM	> 100 µM	> 100 µM		8.66 µM and 31.3 µM	11 µM and 28.8 µM	6.22 µM and 12.7 µM	4.45 µM and 18.4 µM	2.53 µM and 5.95 µM
COc1ccc([C@]23CCN4COC[C@@H]([C@H]42)C2(CC3)OCC(C)(C)CO2)cc1OC	> 100 µM	> 100 µM	> 100 µM	> 100 µM	> 100 µM	> 100 µM	> 100 µM	> 100 µM	> 100 µM	> 100 µM						
Cc1c(O)c(OC2OC(CO)C(O)C(O)C2O)cc2c1C=C[C@@H]1[C@@]2(C)C(=O)C[C@]2(C)[C@@H]([C@@](C)(O)C(=O)CCC(C)(C)O)[C@H](O)C[C@@]12C (stereo partly drawn)	36.2 µM	46.3 µM	33.5 µM	40.8 µM	83.1 µM	79.9 µM	91.4 µM	54 µM	68.7 µM	83 µM						
COCC12CCC(OC)C34C5CC6(O)C(OC)CC(OC(C)=O)(C5C6OC(=O)c5ccccc5)C(C(OC)C13)C4N(C)C2 (stereo not drawn)	> 100 µM	> 100 µM	> 100 µM	> 100 µM	> 100 µM	> 100 µM	> 100 µM	> 100 µM	> 100 µM	> 100 µM						
CCOC(=O)C(=O)CC(=O)C1=C(c2ccccc2OC)CC(c2cccs2)=CC1=O	> 100 µM	> 100 µM	> 100 µM	> 100 µM	> 100 µM	> 100 µM	> 100 µM	> 100 µM	> 100 µM	> 100 µM						
CC12ON(P(=O)(c3ccccc3)c3ccccc3)C(C)(c3ccccc31)c1ccccc12	> 100 µM	> 100 µM	> 100 µM	> 100 µM	> 100 µM	> 100 µM	> 100 µM	> 100 µM	> 100 µM	> 100 µM						
CC(=O)N(C(C)=O)n1c(Cc2ccc(C)cc2)nn(C(C)=O)c1=O	> 100 µM	> 100 µM	> 100 µM	> 100 µM	> 100 µM	> 100 µM	> 100 µM	> 100 µM	> 100 µM	> 100 µM						
N=c1oc2ccccc2cc1-c1nc2ccccc2c(=O)[nH]1	> 100 µM	> 100 µM	> 100 µM	66.1 µM	> 100 µM	> 100 µM	> 100 µM	> 100 µM	> 100 µM	> 100 µM						
O=C(N/N=C(/COc1ccccc1Cl)N=Cc1ccncc1)c1ccncc1	> 100 µM	> 100 µM	> 100 µM	> 100 µM	> 100 µM	> 100 µM	> 100 µM	> 100 µM	> 100 µM	> 100 µM						
CCCCCN(CCCCC)CC(C)(C)C(O)c1ccc(OC)c2ccccc12 (stereo not drawn)	27.2 µM	21.1 µM	25.6 µM	12.7 µM	31.5 µM	27.3 µM	25.9 µM	28 µM	32.7 µM	21.1 µM						
CC(C)(C)OC(=O)N1[C@@H]2Cc3ccc(N)cc3[C@@]1(C)c1ccccc12	> 100 µM	70.7 µM	53.6 µM	52.3 µM	> 100 µM	> 100 µM	> 100 µM	> 100 µM	43.4 µM	> 100 µM						

Reference: PubChem BioAssay (NCI)
